Measured values reported in US9074163B2, “Targeted performance of hypohalite systems thereof” (The Clorox Company, priority 2012, dated 2015).

Assay: percentage initial hypochlorite remaining as a function of time after mixing oxidant with reductant
Assay type: physicochemical
Conditions: any pH below 12
Description: The amount of available halogen oxidant in the composition may be determined by placing samples of the composition into about 50 milliliters of distilled water, followed by addition of about 10 milliliters of a 10 wt % solution of potassium iodide and addition of about 10 milliliters of a 10 volume % solution of sulfuric acid, the resulting mixture being well stirred. The resulting yellow to brown solution, whose color is the result of oxidation of free iodine ion (I′) to molecular iodine (I2), is then volumetrically titrated to an essentially colorless endpoint by addition of standardized 0.1 Molar sodium thiosulfate (Na2S2O3) titrant. […] Stability results are then expressed by repeated assays over time using identically prepared samples resulting from the same composition, normalized to 100 percent representative of the starting available chlorine measured initially.
Alternatively, at lower concentrations of hypochlorite, generally below about 2,000 ppm or 0.2 wt %, spectroscopic measurement of the absorption of aqueous solutions may be used to monitor the concentration, and resulting changes, of the hypochlorous acid species in solution. […] By use of controls, the relative level of hypochlorite can then be monitored and calculated by measuring absorbance of solutions by means of a suitable instrument, such as a spectrophotometer. […]

reaction of reductant with hypochlorite (quenching rate): reacts almost instantly
SMILES: O=C(O)CN(CCN(CC(=O)O)CC(=O)O)CC(=O)O [EDTA, ethylene diamine tetra-acetic acid]
